Article PMC4421842 (Nature Communications, 2015)
In brackets after ≈: the same amount, converted by molar mass. Several values for one entry are separate records, joined by “and”; a condition that tells them apart may be missing. Equal values may be shown once. Read-outs that look alike come from different tables or passages of the source.

Key:
E. faecium = assay: microbe, parasite or virus in culture; type: cell-based; details: Enterococcus faecium, E. faecium
[1] = Pharmacokinetic assessment; type: in vivo, C57BL/6 mice; details: for Cmax: read-out: Cmax (peak serum concentration)
Description: (§1) The animal studies (PK, in-vivo toxicity and in-vivo efficacy) were carried out in strict accordance with the recommendations in the Guide for the Care and Use of Laboratory Animals of the National Institutes of Health. […] In these studies, 10- to 12-week-old female C57BL/6 mice purchased from Charles River were used. DNM, DNM-2 and DNM-3 were formulated as slurries at 8.3 mg ml^−1 in 25% Cremophor RH40/water (v/v). Before beginning the pharmacokinetic assessment, mice were first tested for their ability to tolerate the DNM, DNM-2 and DNM-3 at 50 mg kg^−1 (p.o.). […] At specified time points, mice were killed and blood was collected, centrifuged and the serum was frozen at −80 °C until analysis. The proteins in a 50-μl aliquot of serum were precipitated by the addition of 50 μl of acetonitrile and the sample was centrifuged to remove the proteins. Serum concentrations of DNM, DNM-2 and DNM-3 were determined by HPLC. PK parameters were determined using GraphPad Prism Version 5.00 for Windows.

P. aeruginosa = assay: MIC, microdilution broth, P. aeruginosa; type: cell-based
Source text: (§2) MRSA and P. aeruginosa isolates were from Cubist Pharmaceuticals (Lexington, MA). VRE isolates were from a previously published collection. E. coli strains were obtained either from ATCC or Professor Cari Vanderpool (UIUC). A. baumannii isolates were obtained from Dr John Quale[51].
(§3) Mueller Hinton (MH) broth was used.

physchem = details: pH 7.4
Description: Three independent replicates of each compound were performed.

S83R E. coli DNA gyrase = target: T1, S83R E. coli DNA gyrase (Escherichia coli, UniProt P0AES4+P0AES6, S83R); type: biochemical; details: DNA cleavage assay
T1 construct: His tag (pTRCHisA vector; purified on Ni-NTA); made in house; host or cells: E. coli One Shot BL21 Star (DE3)

E. coli = assay: microbe, parasite or virus in culture; type: cell-based; details: Escherichia coli
Source text: as §2, §3

A. baumannii = assay: MIC, microdilution broth, A. baumannii; type: cell-based; details: Acinetobacter baumannii
Source text: as §2, §3

E. faecalis = assay: microbe, parasite or virus in culture; type: cell-based; details: Enterococcus faecalis, E. faecalis
Ent. Spp. = assay: MIC, microdilution broth, Ent. Spp. VRE clinical isolate; type: cell-based; details: Enterococcus, C28036, gyrA Ser83Ile, parC Ser80Ile
Source text: as §2, §3

WT E. coli DNA gyrase = target: T2, WT E. coli DNA gyrase (Escherichia coli, UniProt P0AES4+P0AES6); type: biochemical; details: DNA cleavage assay
T2 construct: His tag (pTRCHisA vector; purified on Ni-NTA); made in house; host or cells: E. coli One Shot BL21 Star (DE3)

S. aureus (ATCC 29213) = assay: Resistant mutant generation (resistance frequency); type: cell-based; details: low-level CIP-resistant strain 29213-C1
[2] = tested on: resistant strains of ATCC 29213; assay: microbe, parasite or virus in culture; type: cell-based, S. aureus
[3] = Tolerability in mice (maximal tolerated dose); type: in vivo
Description: as §1

[4] = tested on: WT S. aureus (ATCC 29213, WT); assay: microbe, parasite or virus in culture; type: cell-based; details: WT GyrA and WT ParC, three independent replicates
VRE clinical isolates = assay: MIC, VRE clinical isolates panel (summary by GyrA mutation); type: cell-based, Enterococcus; details: panel of VRE clinical isolates (n=22)
Source text: as §2, §3

MRSA clinical isolates = assay: microbe, parasite or virus in culture; type: cell-based, S. aureus; details: for MIC: Staphylococcus aureus, MRSA, read-out: MIC
Description: as §2
Susceptibility testing was performed in triplicate, using the microdilution broth method as outlined by the Clinical and Laboratory Standards Institute[52]. Mueller Hinton (MH) broth was used.

[5] = female, C57BL/6, mouse, in vivo, C57/BL6 mice, 50 mg kg-1 oral gavage, serum

Work on `CCn1c(=O)cc(C)c2cc3c(C)cc(=O)n4c3c(c21)OC4` [DNM-2] yielded an MIC (E. faecium; C21190, gyrA Ser83 Arg, parC Ser80Ile) of 8 µg/mL (≈ 27 µM), an MIC (E. faecium; C27282, gyrA Ser83 Arg, parC Ser80Arg) of 4 µg/mL (≈ 13.5 µM) and an MIC (E. faecium; C27569, gyrA Ser83Ile, parC Ser80Ile) of 0.25 µg/mL (≈ 0.844 µM). For the same compound, the MIC (E. faecium; D1, gyrA Ser83Ile, parC Ser80Ile) was 0.5 µg/mL (≈ 1.69 µM), the MIC (E. faecium; S34, gyrA Ser83Ile, parC Ser80 Arg) was 1 µg/mL (≈ 3.37 µM) and the MIC (E. faecium; S51, gyrA Ser83Ile, parC Ser80Ile) was 0.5 µg/mL (≈ 1.69 µM). It also gave an MIC (E. faecium; S122, gyrA Ser83Ile, parC Ser80Ile) of 0.5 µg/mL (≈ 1.69 µM), an MIC (E. faecium; S226, gyrA Ser83Ile, parC Ser80Ile) of 0.5 µg/mL (≈ 1.69 µM) and an MIC (E. faecium; S235, gyrA Ser83Ile, parC Ser80Ile) of 0.5 µg/mL (≈ 1.69 µM). For the same compound, the MIC (E. faecium; S344, gyrA Ser83Ile, parC Ser80Ile) was 0.5 µg/mL (≈ 1.69 µM), the MIC (E. faecium; S557, gyrA Ser83Ile, parC Ser80Ile) was 0.25 µg/mL (≈ 0.844 µM) and the MIC (E. faecium; SL152, gyrA Ser83Ile, parC Ser80Ile) was 0.5 µg/mL (≈ 1.69 µM). For the same compound, the MIC (E. faecium; U63, gyrA Ser83 Arg, parC Ser80Ile) was 4 µg/mL (≈ 13.5 µM), the MIC (E. faecium; U275, gyrA Ser83Cys Glu87Gly, parC Ser80Ile) was 2 µg/mL (≈ 6.75 µM) and the MIC (E. faecium; U464, gyrA Ser83 Arg, parC Ser80Ile) was 2 µg/mL (≈ 6.75 µM). For the same compound, the MIC (E. faecium; U503, gyrA Ser83 Arg, parC Ser80Ile) was 4 µg/mL (≈ 13.5 µM), the MIC (E. faecium; U563, gyrA Ser83 Arg, parC Ser80Ile) was 2 µg/mL (≈ 6.75 µM) and the AUC [1, 5] was 44000 ng·h/mL. It also gave a Tmax [1, 5] of 1.2 h, a half-life [1, 5] of 0.9 h and a Cmax ([1]; female, C57BL/6, mouse, in vivo, mice, 50 mg kg^−1 oral dose, serum) of 42.6 µM. The Cmax ([1]; female, C57BL/6, mouse, mice, 50 mg kg^−1 oral dose, serum) was 12800 ng/mL and ~50 µM, the “oral bioavailability / serum exposure” value ([1]; mice, 50 mg kg^−1 oral dose) was “good bioavailability” and the “area under the curve” value ([1]; mice, 50 mg kg^−1 oral dose, serum) was 44000 ng·h/mL. For the same compound, the MIC (P. aeruginosa; PA1586 (CIP resistant clinical isolate)) was > 24 µg/mL, the MIC (P. aeruginosa; Pseudomonas aeruginosa, P. aeruginosa PAO1, read-out: MIC) was > 24 µg/mL and the MIC (P. aeruginosa; Pseudomonas aeruginosa, read-out: MIC) was > 24 µg/mL. The solubility at 1 h (physchem) was 121 µM (≈ 35.9 µg/mL), the “inhibition of S83R DNA gyrase” value (S83R E. coli DNA gyrase) was “buildup of OC DNA similar to that seen with S83L DNA gyrase only at a slightly higher concentration or longer time points” and the MIC (E. coli; ATCC25922, E. coli ATCC 25922, gyrA none, parC none) was > 24 µg/mL. For the same compound, the MIC (E. coli; MG1655, E. coli MG1655) was > 24 µg/mL, the MIC (E. coli; MG1655, E. coli MG1655 ∆AcrB (permeabilized strain)) was 2 µg/mL (≈ 6.75 µM) and the MIC (A. baumannii) was > 24 µg/mL. The MIC (A. baumannii; ATCC19606, A. baumannii ATCC 19606, read-out: MIC) was > 24 µg/mL, the MIC (E. faecalis; ATCC19433, ATCC 19433, gyrA WT, parC WT) was 8 µg/mL (≈ 27 µM) and the MIC (E. faecalis; ATCC29212, ATCC 29212, gyrA WT, parC WT) was 8 µg/mL (≈ 27 µM). The MIC (E. faecalis; C21667, gyrA Ser83Ile, parC Ser80Ile) was 0.5 µg/mL (≈ 1.69 µM), the MIC (E. faecalis; S206, gyrA Ser83 Arg, parC Ser80Ile) was 2 µg/mL (≈ 6.75 µM) and the MIC (Ent. Spp.) was 0.5 µg/mL (≈ 1.69 µM). For the same compound, the “inhibition of WT DNA gyrase (increase in L or OC DNA)” value (WT E. coli DNA gyrase) was “poor inhibitors of WT DNA gyrase”, the “resistant colonies on treatment” value (S. aureus (ATCC 29213)) was “resistant colonies were observed” and the MIC ([2]; Staphylococcus aureus, ATCC29213, high-level CIP-resistant strains, second step, S84L mutation in GyrA) was 0.06 to 0.12 µg/mL (≈ 0.202 to 0.405 µM). The MIC ([2]; low-level CIP-resistant strains, first step, WT gyrA, mutation in ParC (for example E84K or S80F)) was “not sensitive”, the tolerability ([3]; increasing doses, highest dose evaluated 50 mg kg^−1 by oral gavage) was “well tolerated up to the highest dose evaluated” and the maximal tolerated dose ([3]; oral gavage) was > 50 mg/kg. For the same compound, the “MIC against S. aureus 29213” value ([4]; ATCC 29213) was 8 µg/mL (≈ 27 µM), the MIC ([4]; Staphylococcus aureus, ATCC29213, ATCC 29213, read-out: MIC against S. aureus 29213) was 8 µg/mL (≈ 27 µM) and the “Sensitivity of VRE clinical isolates” value (VRE clinical isolates) was “sensitive”. It also gave an MIC (MRSA clinical isolates; strain SAU.1118) of 2 µg/mL (≈ 6.75 µM), an MIC (MRSA clinical isolates; strain SAU.2996) of 0.5 µg/mL (≈ 1.69 µM) and an MIC (MRSA clinical isolates; strain SAU.3017) of 4 µg/mL (≈ 13.5 µM). It also gave an MIC (MRSA clinical isolates; strain SAU.3021) of 0.063 µg/mL (≈ 0.213 µM), an MIC (MRSA clinical isolates; strain SAU.3024) of 0.125 µg/mL (≈ 0.422 µM) and an MIC (MRSA clinical isolates; strain SAU.3025) of 0.063 µg/mL (≈ 0.213 µM). The MIC (MRSA clinical isolates; strain SAU.42) was 2 µg/mL (≈ 6.75 µM), the MIC (MRSA clinical isolates; strain SAU.555) was 0.25 µg/mL (≈ 0.844 µM) and the MIC (MRSA clinical isolates; strain SAU.669) was 0.063 µg/mL (≈ 0.213 µM). The MIC (MRSA clinical isolates; strain SAU.846) was 0.25 µg/mL (≈ 0.844 µM) and the “Sensitivity of MRSA clinical isolates” value (MRSA clinical isolates; panel of MRSA clinical isolates (n=21)) was “sensitive”.
